Data published in ChEMBL document CHEMBL1134533, “Design, synthesis, computational prediction, and biological evaluation of ester soft drugs as inhibitors of dihydrofolate reductase from Pneumocystis carinii” (J Med Chem, 2001).

Experiments:
[1] = Ratio of the IC50 values for rlDHFR of the metabolite and pcDHFR of the soft drug
Dihydrofolate reductase [2] = biological target: T1, Dihydrofolate reductase (Pneumocystis carinii, UniProt P16184)
T1 sequence (P16184 whole entry): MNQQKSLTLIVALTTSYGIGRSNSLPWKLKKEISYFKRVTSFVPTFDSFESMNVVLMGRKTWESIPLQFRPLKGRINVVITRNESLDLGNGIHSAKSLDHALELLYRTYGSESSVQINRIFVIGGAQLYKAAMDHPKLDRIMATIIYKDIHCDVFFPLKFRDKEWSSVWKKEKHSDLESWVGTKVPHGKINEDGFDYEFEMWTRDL
Description: Inhibitory concentration against dihydrofolate reductase dihydrofolate reductase from Pneumocystis carinii.

[3] = biological target: T2, Bifunctional dihydrofolate reductase-thymidylate synthase (Toxoplasma gondii, UniProt Q07422)
T2 sequence (Q07422 whole entry): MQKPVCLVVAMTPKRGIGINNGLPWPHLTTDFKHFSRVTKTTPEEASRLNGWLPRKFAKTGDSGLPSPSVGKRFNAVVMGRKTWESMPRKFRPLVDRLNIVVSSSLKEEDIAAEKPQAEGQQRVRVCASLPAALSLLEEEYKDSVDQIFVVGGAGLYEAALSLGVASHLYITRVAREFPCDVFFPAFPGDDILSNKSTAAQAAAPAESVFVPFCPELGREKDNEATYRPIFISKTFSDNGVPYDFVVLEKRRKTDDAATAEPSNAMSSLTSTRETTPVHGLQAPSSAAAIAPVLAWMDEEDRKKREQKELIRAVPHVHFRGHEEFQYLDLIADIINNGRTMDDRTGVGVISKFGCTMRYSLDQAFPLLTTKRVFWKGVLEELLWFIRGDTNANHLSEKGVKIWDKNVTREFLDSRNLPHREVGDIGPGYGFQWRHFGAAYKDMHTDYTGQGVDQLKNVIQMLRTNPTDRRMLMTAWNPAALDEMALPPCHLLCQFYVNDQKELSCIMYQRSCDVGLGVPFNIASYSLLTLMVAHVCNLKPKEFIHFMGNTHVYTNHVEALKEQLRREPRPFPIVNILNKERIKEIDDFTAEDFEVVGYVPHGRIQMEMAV
Description: Inhibitory concentration against dihydrofolate reductase DHFR from Toxoplasma gondii

Dihydrofolate reductase [4] = biological target: T3, Dihydrofolate reductase (Rattus norvegicus, UniProt Q920D2)
T3 sequence (Q920D2 whole entry): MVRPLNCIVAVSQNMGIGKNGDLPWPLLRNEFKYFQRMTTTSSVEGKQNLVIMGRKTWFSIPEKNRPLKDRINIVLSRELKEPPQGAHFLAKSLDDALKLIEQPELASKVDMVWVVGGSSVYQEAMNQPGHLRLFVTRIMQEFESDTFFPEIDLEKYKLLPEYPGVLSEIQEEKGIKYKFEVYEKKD
Description: Inhibitory concentration against dihydrofolate reductase DHFR from rat liver.

[5] = biological target: T4, Bifunctional dihydrofolate reductase-thymidylate synthase (Toxoplasma gondii) (UniProt Q07422); assay: Inhibitory activity against dihydrofolate reductase DHFR from Toxoplasma gondii at 104 uM concentration
T4 sequence (whole entry): T2 sequence (Q07422 whole entry)

[6] = biological target: T5, Dihydrofolate reductase (Pneumocystis carinii) (UniProt P16184); assay: Inhibitory activity against dihydrofolate reductase dihydrofolate reductase from Pneumocystis carinii. at 104 uM concentration
T5 sequence (whole entry): T1 sequence (P16184 whole entry)

[7] = biological target: T6, Dihydrofolate reductase (Rattus norvegicus) (UniProt Q920D2); assay: Inhibitory activity against dihydrofolate reductase DHFR from rat liver at 104 uM concentration
T6 sequence (whole entry): T3 sequence (Q920D2 whole entry)

[8] = biological target: T6, Dihydrofolate reductase (Rattus norvegicus); assay: Inhibitory activity against dihydrofolate reductase DHFR from rat liver at 51 uM concentration
[9] = biological target: T4, Bifunctional dihydrofolate reductase-thymidylate synthase (Toxoplasma gondii); assay: Inhibitory activity against dihydrofolate reductase DHFR from Toxoplasma gondii at 51 uM concentration
[10] = biological target: T5, Dihydrofolate reductase (Pneumocystis carinii); assay: Inhibitory activity against dihydrofolate reductase dihydrofolate reductase from Pneumocystis carinii. at 51 uM concentration
[11] = biological target: T5, Dihydrofolate reductase (Pneumocystis carinii); assay: Inhibitory activity against dihydrofolate reductase dihydrofolate reductase from Pneumocystis carinii. at 32 uM concentration
[12] = biological target: T6, Dihydrofolate reductase (Rattus norvegicus); assay: Inhibitory activity against dihydrofolate reductase DHFR from rat liver at 32 uM concentration
[13] = biological target: T4, Bifunctional dihydrofolate reductase-thymidylate synthase (Toxoplasma gondii); assay: Inhibitory activity against dihydrofolate reductase DHFR from Toxoplasma gondii at 32 uM concentration
[14] = biological target: T4, Bifunctional dihydrofolate reductase-thymidylate synthase (Toxoplasma gondii); assay: Relative activity against dihydrofolate reductase DHFR from Toxoplasma gondii

Structure (SMILES)	IC50 (Dihydrofolate reductase [2]) [µM]	IC50 [3] [µM]	IC50 (Dihydrofolate reductase [4]) [µM]	other results
Cc1c(COC(=O)c2ccccc2)cnc2nc(N)nc(N)c12	0.25	0.056	0.23	Ratio [1]: 33
Nc1nc(N)c2cc(CO)cnc2n1				inhibition [5]: 9%; inhibition [6]: 17%; inhibition [7]: 19%
Nc1nc(N)c2cc(CO)ccc2n1		44.9	40.3	
Nc1nc(N)c2nc(CO)cnc2n1				inhibition [8]: 2%; inhibition [9]: 12%; inhibition [10]: 10%
COc1ccc(OC)c(C(=O)OCc2ccc3nc(N)nc(N)c3c2)c1	2.4	0.22	0.42	
Nc1nc(N)c2cc(COC(=O)Cc3ccccc3)ccc2n1		1.9	2.3	
CN(Cc1ccc2nc(N)nc(N)c2c1)c1ccccc1	0.096	0.011	0.069	
Nc1nc(N)c2cc(C(=O)O)ccc2n1				inhibition [11]: 11%; inhibition [12]: 3%; inhibition [13]: 16%
Nc1nc(N)c2cc(COC(=O)c3ccccc3)ccc2n1	0.6	0.099	0.39	Ratio [1]: 67; Relative IC50 [14]: 3.9
Nc1nc(N)c2cc(COC(=O)c3ccc(C(=O)O)cc3)ccc2n1	1	1		
Nc1nc(N)c2cc(CNc3ccccc3)ccc2n1	0.98	0.1	0.44	
Nc1nc(N)c2cc(/C=C/C(=O)Oc3ccccc3)ccc2n1		0.189	1.29	
Nc1nc(N)c2cc(C(=O)OCc3ccccc3)ccc2n1	2.5	0.36	0.42	Relative IC50 [14]: 1.2
COc1ccc(OC)c(Cc2cnc3nc(N)nc(N)c3c2C)c1 [PIRITREXIM]			0.0044	
COc1cc(OC)cc(C(=O)OCc2ccc3nc(N)nc(N)c3c2)c1	0.46	0.15	0.35	
COc1ccc(C(=O)OCc2ccc3nc(N)nc(N)c3c2)c(OC)c1OC	1.4	0.14	0.5	
Nc1nc(N)c2cc(COC(=O)c3ccccc3)cnc2n1	5.45	1.9	3.9	
Cc1c(CO)cnc2nc(N)nc(N)c12		3.2	8.5	
Nc1nc(N)c2nc(COC(=O)c3ccccc3)cnc2n1	9.8	5.8	7	
COc1ccc(C(=O)OCc2ccc3nc(N)nc(N)c3c2)cc1OC	0.51	0.066	0.11	
COc1cc(NCc2ccc3nc(N)nc(N)c3c2C)cc(OC)c1OC [TRIMETREXATE]			0.008	
COc1cc(C(=O)OCc2ccc3nc(N)nc(N)c3c2)cc(OC)c1OC	0.56	0.05	0.026	Relative IC50 [14]: 0.51
